Drawing on patent US20260224561A1, “INHIBITORS OF CYCLIC ADP RIBOSE HYDROLASE AND METHODS OF USE THEREOF” (Flagship Pioneering Innovations VI, LLC, priority 2022, published 2026), this text covers IC50 for 14 compounds.

This assay has as its target T1, Human recombinant CD38 (Homo sapiens, UniProt P28907).
T1 construct: purchased BPS Bioscience
T1 sequence (P28907 1-300): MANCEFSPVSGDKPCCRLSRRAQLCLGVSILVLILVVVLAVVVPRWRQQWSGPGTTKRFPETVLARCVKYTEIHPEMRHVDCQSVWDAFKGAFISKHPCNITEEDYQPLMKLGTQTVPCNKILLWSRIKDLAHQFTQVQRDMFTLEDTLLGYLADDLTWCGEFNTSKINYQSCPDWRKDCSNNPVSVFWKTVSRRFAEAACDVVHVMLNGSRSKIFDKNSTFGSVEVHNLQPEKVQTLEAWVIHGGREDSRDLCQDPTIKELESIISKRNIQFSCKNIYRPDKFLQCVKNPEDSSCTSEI
Put plainly: CD38 hydrolase inhibition assay. The class given is biochemical. To be noted: glycohydrolase activity, 0.2 ng/μL CD38, 100 μM ε-NAD substrate, fluorescence excitation 300 nm / emission 410 nm. How it is done:
Example 22: CD38 Hydrolase Inhibition Assay
The CD38 hydrolase inhibition assay measures the glycohydrolase activity of CD38, using an NAD analog as substrate and measuring formation of a fluorescent ADP ribose analog. A 4× buffer was prepared with 1M sucrose and 160 mM Tris-HCl at pH 7.4, for a final assay concentration of 250 mM sucrose and 40 mM Tris-HCl. The 4× solution was kept at 4° C. and warmed to room temperature before use. Tween20 was added to 1× buffer for a final concentration of 0.05%. Human recombinant CD38 (BPS Bioscience) was diluted to 0.4 ng/μL in 1× buffer and 12.5 μL added to each plate well. Inhibitors were added and DMSO content was normalized to the highest concentration on the plate, with an upper limit of 0.5%. Finally, ε-NAD was diluted to 200 μM in 1× buffer and 12.5 μL added to each plate well, for final well concentrations of 0.2 ng/μL CD38 and 100 μM ε-NAD. Plates were covered and incubated at room temperature for […], and then read on a plate reader using excitation 300 nm and emission 410 nm. […] IC50s for test compounds were determined either using GraphPad Prism software v9.3, or CDD Vault.
On to `COCCOc1cc(C(=O)Nc2cncc(Cl)c2)cc(-n2ccnc2)c1` [Compound 106, N-(5-chloropyridin-3-yl)-3-(imidazol-1-yl)-5-(2-methoxyethoxy) benzamide], for which the half-maximal inhibitory concentration (IC50) is below 100 nM.

For `CN(C)CCOc1cc(C(=O)Nc2ccnc(C(F)(F)F)c2)cc(-n2ccnc2)c1` [Compound 107, 3-[2-(dimethylamino)ethoxy]-5-(imidazol-1-yl)-N-[2-(trifluoromethyl)pyridin-4-yl]benzamide], the IC50 is below 100 nM.

Consider `COCCOc1cc(C(=O)Nc2ccc3cn[nH]c3c2)cc(-n2ccnc2)c1` [Compound 109, 3-(imidazol-1-yl)-N-(1H-indazol-6-yl)-5-(2-methoxyethoxy) benzamide], for which the IC50 was below 100 nM.

For `COCCOc1cc(C(=O)Nc2ccc(F)c(Cl)c2)cc(-n2ccnc2)c1` [Compound 111, N-(3-chloro-4-fluorophenyl)-3-(imidazol-1-yl)-5-(2-methoxyethoxy)benzamide], the IC50 was below 100 nM.

For `COCCOc1cc(C(=O)Nc2ccc(C(F)(F)F)nc2)cc(-n2ccnc2)c1` [Compound 112, 3-(imidazol-1-yl)-5-(2-methoxyethoxy)-N-[6-(trifluoromethyl)pyridin-3-yl]benzamide], the 50% inhibitory concentration (IC50) was below 100 nM.

Take `COCCOc1cc(-n2ccnc2)cc(C(=O)Nc2ccnc(C(F)(F)F)c2)c1Cl` [Compound 113]: the concentration for half-maximal inhibition (IC50) was above 1000 nM.

`COc1cc(C(=O)Nc2ccnc(C(F)(F)F)c2)cc(-n2ccnc2)c1` [Compound 115, 3-(imidazol-1-yl)-5-methoxy-N-[2-(trifluoromethyl)pyridin-4-yl]benzamide]: the half-maximal inhibitory concentration (IC50) was below 100 nM.

`COCCOc1cc(C(=O)Nc2ccnc(C(F)(F)F)c2)cc(-c2cncs2)c1` [Compound 116, 3-(2-methoxyethoxy)-5-(1,3-thiazol-5-yl)-N-[2-(trifluoromethyl)pyridin-4-yl]benzamide]: the IC50 is below 100 nM.

With `COCCOc1cc(-n2ccnc2)cc(C(=O)Nc2ccnc(C(F)(F)F)c2)c1F` [Compound 117, 2-fluoro-5-(imidazol-1-yl)-3-(2-methoxyethoxy)-N-[2-(trifluoromethyl)pyridin-4-yl]benzamide], the half-maximal inhibitory concentration (IC50) lay within 100 to 1000 nM.

As to `COCCOc1cc(C(=O)Nc2ccnc(C(F)(F)F)c2)cc(-n2cncc2CO)c1` [Compound 118], the half-inhibitory concentration (IC50) lay within 100 to 1000 nM.

With `COCCOc1cc(C(=O)Nc2ccnc(C(F)(F)F)c2)cc(-c2cccnc2)c1` [Compound 120, 3-(2-methoxyethoxy)-5-(pyridin-3-yl)-N-[2-(trifluoromethyl)pyridin-4-yl]benzamide], the IC50 was above 1000 nM.

Take `COCCOc1cc(C(=O)Nc2ccc3[nH]ncc3c2)cc(-n2ccnc2)c1` [Compound 126, 3-(imidazol-1-yl)-N-(1H-indazol-5-yl)-5-(2-methoxyethoxy) benzamide]: the half-maximal inhibitory concentration (IC50) is below 100 nM.

`COCCOc1cc(C(=O)Nc2ccc3[nH]cnc3c2)cc(-n2ccnc2)c1` [Compound 127, N-(1H-benzo[d]imidazol-6-yl)-3-(1H-imidazol-1-yl)-5-(2-methoxyethoxy)benzamide]: the IC50 is below 100 nM.

`COCCOc1cc(C(=O)Nc2ccc3nccnc3c2)cc(-n2ccnc2)c1` [Compound 128, 3-(imidazol-1-yl)-5-(2-methoxyethoxy)-N-(quinoxalin-6-yl) benzamide]: the IC50 is below 100 nM.
